In US10668039B2, “Methods for treatment of adenoid cystic carcinoma” (THE CHILDREN'S MEDICAL CENTER CORPORATION, priority 2016, dated 2020):
“Also recorded” adds a separate entry of the source.

How the values were obtained:
c-myb:GFP positive cells = experiment: Confocal imaging of CHT, c-myb:GFP positive cells; type: in vivo, zebrafish; settings: 10 μM, treated 48-72 hpf, imaged at 72 hpf
Experimental: Confocal imaging: Double transgenic c-myb:GFP; lyz:dsRed or c-myb:GFP; mpeg1:mCherry embryos from the same clutch were treated between 48-72 hpf (n=4 biological replicates per treatment group) with 10 μM ATRA diluted in E3. Live 72 hpf embryos were embedded in 0.8% low-melting point agarose containing 0.04 mg/mL Tricaine and imaged on a Nikon Eclipe Ti microscope with 20× Plan-Apo DIC N.A. 0.75. CHT cells were counted in Z-stack image projections processed on Imaris software (Bitplane).

mpx = experiment: In situ hybridization of whole embryos, mpx; type: in vivo, zebrafish; settings: 10 μM, treated 48-72 hpf, fixed at 72 hpf
Experimental: In situ hybridization: Wildtype AB embryos from the same clutch were treated between 48-72 hpf with 10 μM retinoic acid agonists diluted in E3, fixed at 72 hpf in 4% paraformaldehyde, and processed as previously described. CHT staining in the embryos was blindly scored as high, medium, or low, and summed across 3 independent experiments as done previously. Representative images were acquired on a Nikon ZMS 18 microscope.

CC(C=CC1=C(C)CCCC1(C)C)=CC=C/C(C)=C/C(=O)O [ATRA, (E)-3,7-dimethyl-9-(2,6,6-trimethyl-1-cyclo-hexen-1-yl)-2,4,6,8-nonatetraenoic acid]
number of c-myb:GFP+ cells in the CHT (c-myb:GFP positive cells): significant decrease; also recorded: decreased | mpx expression (staining) in the CHT (mpx): no significant difference; also recorded: did not decrease staining
